{"source": "patent US7547700B2", "about": "“Aryl-[4-halo-4(heteroarylmethylamino)-methyl]-piperidin-1-1yl]-methanone derivatives, methods for production and use thereof as medicaments” (PIERRE Fabre Medicament, priority 2002, dated 2009)", "key": {"[1]": {"target": "T1, dopaminergic D2 receptors (Rattus norvegicus, UniProt P61169)", "T1 construct": "For these experiments, rat striatum is used; from tissue; host or cells: rat striatum homogenate", "T1 sequence (P61169 whole entry)": "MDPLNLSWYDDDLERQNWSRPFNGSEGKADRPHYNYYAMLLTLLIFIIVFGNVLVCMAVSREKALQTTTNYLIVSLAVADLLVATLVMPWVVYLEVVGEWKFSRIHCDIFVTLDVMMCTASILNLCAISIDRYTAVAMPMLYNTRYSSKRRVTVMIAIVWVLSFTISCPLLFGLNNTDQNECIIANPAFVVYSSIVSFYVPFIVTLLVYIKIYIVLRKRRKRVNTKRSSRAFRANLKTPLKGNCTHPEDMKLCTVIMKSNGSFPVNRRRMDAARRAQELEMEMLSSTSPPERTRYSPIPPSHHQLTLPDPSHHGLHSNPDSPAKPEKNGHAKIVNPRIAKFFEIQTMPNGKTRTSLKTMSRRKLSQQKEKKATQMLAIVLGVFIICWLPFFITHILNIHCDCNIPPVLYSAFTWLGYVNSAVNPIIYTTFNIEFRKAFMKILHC", "experiment": "Affinity for the D2 receptors, displacement of [3H]YM-09151-2", "assay_type": "binding", "settings": "rat striatum, [3H]YM-09151-2 displacement, mean of at least 3 experiments", "description": "Measurement of the affinity of the compounds of the invention for the D2 receptors\nFor these experiments, rat striatum is used. After thawing the brain in Tris-HCl buffer (50 mmol, pH=7.4) at 25° C., the striatum is removed and homogenized in 40 volumes of buffer maintained at 4° C. The homogenate is centrifuged at 20 000×g for 10 minutes, and the centrifugation pellet is suspended in the same volume of buffer and recentrifuged. The final pellet is suspended in cold Tris-HCl reaction buffer at 25° C. containing 120 mmol of NaCl and 5 mmol of KCl. The final concentration of tissue in the incubation medium is 2 mg/tube. […] The nonspecific binding is defined by using […] of (+)-butaclamol. The reaction tubes are incubated at 23° C. for 60 minutes and their content is then rapidly filtered through Whatman GF/B filters, and the tubes are rinsed twice with 5 ml of Tris-HCl buffer at 25° C. The radioactivity collected on the filter is analyzed by liquid scintillation, by adding 4 ml of scintillant liquid (Emulsifier Safe, Packard). All the experiments are performed in triplicate."}, "5-HT1A receptors [2]": {"target": "T2, 5-HT1A receptors (Homo sapiens, UniProt P08908)", "T2 construct": "Gibco Biocult; Laboratory, Paisley UK; host or cells: unspecified cells; membrane preparation", "T2 sequence (P08908 1-422)": "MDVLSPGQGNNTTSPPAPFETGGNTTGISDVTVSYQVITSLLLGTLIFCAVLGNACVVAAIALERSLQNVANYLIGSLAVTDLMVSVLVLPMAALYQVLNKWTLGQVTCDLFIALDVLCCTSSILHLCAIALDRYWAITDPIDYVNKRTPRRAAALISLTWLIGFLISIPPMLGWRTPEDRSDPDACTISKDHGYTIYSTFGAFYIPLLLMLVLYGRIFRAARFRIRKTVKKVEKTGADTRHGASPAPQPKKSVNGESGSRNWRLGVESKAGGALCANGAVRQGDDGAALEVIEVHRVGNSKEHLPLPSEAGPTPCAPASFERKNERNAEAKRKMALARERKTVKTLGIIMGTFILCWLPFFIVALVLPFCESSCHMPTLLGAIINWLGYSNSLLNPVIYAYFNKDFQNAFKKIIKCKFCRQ", "experiment": "Efficacy: stimulation of [35S]GTPγS binding in a cell membrane preparation", "assay_type": "biochemical", "description": "Measurement of the Efficacy of the Compounds of the Invention\nThe cells (Gibco Biocult. Laboratory, Paisley UK) are collected in phosphate buffer (pH=7.4) and centrifuged at 48 000 g for 20 minutes. The centrifugation pellet is homogenized in Hepes (20 mmol, pH=7.4) containing EDTA (10 mmol) and recentrifuged at 48 000×g for 10 minutes. The centrifugation pellet is washed twice in Hepes (10 mmol, pH=7.4) containing EDTA (0.1 mmol). The pellet is stored at −80° C. in portions of 600 to 750 μg of protein. […] The incubation medium contains 0.4 ml of membrane preparation and 0.05 ml of test compound. After incubation for 30 minutes at 25° C., 0.05 ml of [^35S]GTPγS (500 picomol), ([^35S]GTPγS (1100 Ci/mmol), Amersham, Les Ulis France), is added and the mixture incubated for 30 minutes. The reactions are quenched by addition of 3 ml of ice-cold Hepes (20 mmol) containing 3 mmol of MgCl2 and rapid filtration through Whatman GF/B filters. The tubes are rinsed 3 times with 5 ml of Hepes buffer at 25° C. The radioactivity collected on the filter is analyzed by liquid scintillation by adding 4 ml of scintillant liquid (Emulsifier Safe, Packard). […] All the experiments are performed in triplicate."}, "5-HT1A receptors [3]": {"target": "T3, 5-HT1A receptors (Rattus norvegicus, UniProt P19327)", "T3 construct": "For these experiments, rat cerebral cortices are used; from tissue; host or cells: rat cerebral cortex homogenate", "T3 sequence (P19327 1-422)": "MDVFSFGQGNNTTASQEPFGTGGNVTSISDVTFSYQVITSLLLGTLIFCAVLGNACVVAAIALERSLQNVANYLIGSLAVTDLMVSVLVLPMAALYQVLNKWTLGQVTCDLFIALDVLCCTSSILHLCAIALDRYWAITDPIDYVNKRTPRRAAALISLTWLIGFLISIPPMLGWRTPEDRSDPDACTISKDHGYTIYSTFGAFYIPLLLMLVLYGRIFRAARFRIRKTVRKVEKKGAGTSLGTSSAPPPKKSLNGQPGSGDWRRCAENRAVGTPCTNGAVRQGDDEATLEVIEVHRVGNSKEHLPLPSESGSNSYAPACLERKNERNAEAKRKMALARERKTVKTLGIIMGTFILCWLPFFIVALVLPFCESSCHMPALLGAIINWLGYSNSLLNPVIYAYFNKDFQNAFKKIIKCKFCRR", "experiment": "Affinity for the 5-HT1A receptors, displacement of [3H]8-OH-DPAT", "assay_type": "binding", "settings": "for Selectivity 5-HT1A/D2: ratio of 5-HT1A to D2 affinity", "description": "Measurement of the affinity of the compounds in the invention for the 5-HT1A receptors\nFor these experiments, rat cerebral cortices are used. After thawing the brain in Tris-HCl buffer (50 mmol, pH=7.4) at 25° C., the cerebral cortex is removed and homogenized in 20 volumes of buffer maintained at 4° C. The homogenate is centrifuged at 39 000×g for 10 minutes, and the centrifugation pellet is suspended in the same volume of buffer and recentrifuged. After resuspending under the same conditions, the homogenate is incubated for 10 minutes at 37° C. and then recentrifuged. The final pellet is suspended in cold Tris-HCl reaction buffer (50 mmol) at 25° C. containing […] of pargyline, 4 mmol of CaCl2 and 0.10% of ascorbic acid. The final concentration of tissue in the incubation medium is 10 mg/tube.\nThe nonspecific binding is defined by using […] of serotonin. The reaction tubes are incubated at 23° C. for 30 minutes and their content is then rapidly filtered under vacuum through Whatman GF/B filters, and the tubes are rinsed with twice 5 ml of tris-HCl buffer at 25° C. The radio-activity collected on the filter is analyzed by liquid scintillation, by adding 4 ml of scintillant liquid (Emulsifier Safe, Packard, Warrenville, USA). All the experiments are performed in triplicate."}, "[4]": {"settings": "read-out: 5-HT1A pKi (converted)"}, "[5]": {"settings": "[35S]GTPγS binding, maximum stimulation defined with serotonin (10 μmmol), read-out: % stimulation Maximum effect"}}, "note": "Where a name gives a salt, the structure may show the parent alone. Read-outs that look alike come from different tables or passages of the source.", "data": [{"smiles": "O=C(c1ccc(F)c(Cl)c1)N1CCC(F)(CNCc2ccc(O)cn2)CC1", "note": "(as salt: fumarate) [Compound 1-1, (3-chloro-4-fluorophenyl)(4-fluoro-4-{[(5-hydroxypyridin-2-ylmethyl)amino]methyl}-piperidin-1-yl)methanone]", "values": [{"measurement": "melting point", "value": "225 to 227", "unit": "°C"}]}, {"smiles": "N#Cc1ccc(CNCC2(F)CCN(C(=O)c3ccc(F)c(Cl)c3)CC2)nc1", "note": "(as salt: fumarate) [Compound 1-2, (3-chloro-4-fluorophenyl)-(4-fluoro-4-{[(5-cyanopyridin-2-ylmethyl)amino]methyl}-piperidin-1-yl)methanone]", "values": [{"measurement": "melting point", "value": "170 to 172", "unit": "°C"}]}, {"smiles": "O=C(c1ccc(F)c(Cl)c1)N1CCC(F)(CNCc2ccc(Cl)cn2)CC1", "note": "(as salt: fumarate) [Compound 1-3, (3-chloro-4-fluorophenyl)-(4-fluoro-4-{[(5-chloropyridin-2-ylmethyl)amino]methyl}piperidin-1-yl)methanone]", "values": [{"measurement": "melting point", "value": "160 to 162", "unit": "°C"}]}, {"smiles": "O=C(c1ccc(F)c(Cl)c1)N1CCC(F)(CNCc2ccc(CF)cn2)CC1", "note": "(as salt: fumarate) [Compound 1-4, (3-chloro-4-fluorophenyl)-(4-fluoro-4-{[(5-fluoromethylpyridin-2-ylmethyl)amino]-methyl}piperidin-1-yl)methanone]", "values": [{"measurement": "melting point", "value": "157 to 159", "unit": "°C"}]}, {"smiles": "Cc1cnc(CNCC2(F)CCN(C(=O)c3ccc(Cl)c(Cl)c3)CC2)nc1", "note": "(as salt: fumarate) [Compound 1-6, (3,4-dichlorophenyl)-(4-fluoro-4-{[(5-methylpyrimidin-2-ylmethyl)amino]-methyl}piperidin-1-yl)methanone]", "values": [{"measurement": "melting point", "value": 161, "unit": "°C"}]}, {"smiles": "Cc1ccc(CNCC2(F)CCN(C(=O)c3ccc(F)c(F)c3)CC2)nc1", "note": "(as salt: fumarate) [Compound 1-11, (3,4-difluorophenyl)-(4-fluoro-4-{[(5-methylpyridin-2-ylmethyl)amino]methyl}piperidin-1-yl)methanone]", "values": [{"measurement": "melting point", "value": 158, "unit": "°C"}]}, {"smiles": "Cc1ccc(CNCC2(F)CCN(C(=O)c3ccc(Cl)c(F)c3)CC2)nc1", "note": "(as salt: fumarate) [Compound 1-12, (3-fluoro-4-chlorophenyl)-(4-fluoro-4-{[(5-methylpyridin-2-ylmethyl)amino]methyl}piperidin-1-yl)methanone]", "values": [{"measurement": "melting point", "value": 150, "unit": "°C"}]}, {"smiles": "Cc1ccc(CNCC2(F)CCN(C(=O)c3ccc(F)c(C#N)c3)CC2)nc1", "note": "(as salt: fumarate) [Compound 1-13, (3-cyano-4-fluorophenyl)-(4-fluoro-4-{[(5-methylpyridin-2-ylmethyl)amino]methyl}piperidin-1-yl)methanone]", "values": [{"measurement": "melting point", "value": 175, "unit": "°C"}]}, {"smiles": "Cc1ccc(CNCC2(F)CCN(C(=O)c3ccc(F)c(Cl)c3)CC2)nn1", "note": "(as salt: hydrochloride) [Compound 1-7, (3-chloro-4-fluorophenyl)-(4-fluoro-4-{[(6-methylpyridazin-3-ylmethyl)amino]-methyl}piperidin-1-yl)methanone]", "values": [{"measurement": "melting point", "value": "205 °C (dec.)"}]}, {"smiles": "Cc1ccc(CNCC2(Cl)CCN(C(=O)c3ccc(F)c(Cl)c3)CC2)nc1", "note": "(as salt: hydrochloride) [Compound 1-9, (3-chloro-4-fluorophenyl)-(4-chloro-4-{[(5-methylpyridin-2-ylmethyl)amino]-methyl}piperidin-1-yl)methanone]", "values": [{"measurement": "melting point", "value": "190 °C (dec.)"}]}, {"smiles": "Cc1ccc(CNCC2(F)CCN(C(=O)c3cccc(C(F)(F)F)c3)CC2)nc1", "note": "(as salt: hydrochloride) [Compound 1-14, (3-trifluoromethylphenyl)-(4-fluoro-4-{[(5-methylpyridin-2-ylmethyl)amino]methyl}piperidin-1-yl)methanone]", "values": [{"measurement": "melting point", "value": 172, "unit": "°C"}]}, {"smiles": "Cc1ccc(CNCC2(F)CCN(C(=O)c3ccc(Cl)c(Cl)c3)CC2)nn1", "note": "(as salt: oxalate) [Compound 1-8, (3,4-dichlorophenyl)-(4-fluoro-4-{[(6-methylpyridazin-3-ylmethyl)amino]-methyl}piperidin-1-yl)methanone]", "values": [{"measurement": "melting point", "value": "203 °C (dec.)"}]}, {"smiles": "CCCN(CCC)C1CCc2cccc(O)c2C1", "note": "(single isomer, unassigned; (+)) [(+)-8-OH-DPAT, reference compound]", "values": [{"measurement": "Ki", "setting": "[1]; D2 pKi", "value": 794, "unit": "nM"}, {"measurement": "% stimulation Maximum effect", "setting": "5-HT1A receptors [2]; [35S]GTPγS binding, maximum stimulation defined with serotonin (10 μmmol)", "value": 59, "unit": "%"}]}, {"smiles": "Cc1ccc(CNCC2(F)CCN(C(=O)c3ccc(F)c(Cl)c3)CC2)nn1", "note": "[Compound 1-7, (3-chloro-4-fluorophenyl)-(4-fluoro-4-{[(6-methylpyridazin-3-ylmethyl)amino]-methyl}piperidin-1-yl)methanone]", "values": [{"measurement": "Ki", "setting": "[1]; read-out: D2 pKi (converted)", "value": "> 10000", "unit": "nM"}, {"measurement": "Selectivity 5-HT1A/D2", "setting": "5-HT1A receptors [3]", "value": ">1000"}, {"measurement": "Ki", "setting": "5-HT1A receptors [3]; [4]", "value": 5.01, "unit": "nM"}, {"measurement": "Emax", "setting": "5-HT1A receptors [2]; [5]", "value": 90, "unit": "%"}]}, {"smiles": "Cc1ccc(CNCC2(Cl)CCN(C(=O)c3ccc(F)c(Cl)c3)CC2)nc1", "note": "[Compound 1-9, (3-chloro-4-fluorophenyl)-(4-chloro-4-{[(5-methylpyridin-2-ylmethyl)amino]-methyl}piperidin-1-yl)methanone]", "values": [{"measurement": "Ki", "setting": "[1]; read-out: D2 pKi (converted)", "value": "> 10000", "unit": "nM"}, {"measurement": "Selectivity 5-HT1A/D2", "setting": "5-HT1A receptors [3]", "value": ">1000"}, {"measurement": "Ki", "setting": "5-HT1A receptors [3]; [4]", "value": 0.794, "unit": "nM"}, {"measurement": "Emax", "setting": "5-HT1A receptors [2]; [5]", "value": 100, "unit": "%"}]}, {"smiles": "CCCN(CCC)C1CCc2cccc(O)c2C1", "note": "(stereo not drawn) [Compound 8-OH-DPAT, 8-hydroxy-2-di-n-propylaminotetralin, reference compound]", "values": [{"measurement": "Ki", "setting": "[1]; D2 pKi", "value": 631, "unit": "nM"}, {"measurement": "Emax", "setting": "5-HT1A receptors [2]; read-out: % stimulation Maximum effect, [35S]GTPγS binding, maximum stimulation defined with serotonin (10 μmmol)", "value": 41, "unit": "%"}]}, {"smiles": "Cc1ccc(CNCC2(F)CCN(C(=O)c3ccc(F)c(Cl)c3)CC2)nc1", "note": "[Compound I-66, (3-chloro-4-fluorophenyl)(4-fluoro-4-{[(5-methylpyridin-2-ylmethyl)-amino]methyl}piperidin-1-yl)methanone, reference compound]", "values": [{"measurement": "Ki", "setting": "5-HT1A receptors [3]", "value": 0.794, "unit": "nM"}, {"measurement": "Emax", "setting": "5-HT1A receptors [2]; [5]", "value": 75, "unit": "%"}]}, {"smiles": "O=C1CC2(CCCC2)CC(=O)N1CCCCN1CCN(c2ncccn2)CC1", "note": "[buspirone]", "values": [{"measurement": "Emax", "setting": "5-HT1A receptors [2]; [5]", "value": 22, "unit": "%"}]}]}
